Experimental data taken from US20100112173A1, “ADDITIVE TO LOW-ALCOHOL OR SOFT DRINKS AND METHODS OF CONDITIONING DRINKS” (priority 2007, published 2010).

Legend:
[1] = Comparative toxicometry, DL 50 m
[2] = Bioavailability / metabolism of the selenium compound
[3] = Hazard (toxicity) class assignment
[4] = Comparative toxicometry, Lim sub ch (30 days); type: in vivo
[5] = cited from earlier work
[6] = Comparative toxicometry, DL 50 ks
[7] = Comparative toxicometry, K sim coefficient; type: in vivo
[8] = cited from earlier work; remark: listed apart in the source

## Cc1n[nH]c(C)c1[Se]c1c(C)n[nH]c1C [DMDPS (Selekor-S), Di-(3,4)-methyldipyrazolylselenide]
[1]
  DL 50 m: 4,800-6,000 mg/kg
[2]
  metabolism (bioavailability): 85-95%
[3]
  hazard class according to Zaugolnikov Table: fourth hazard class
[4]
  Lim sub ch (30 days): 400 to 800 mg/kg
[5]
  Maximum allowable concentrations: 8,100 μg/kg
[5]; human
  ADI (human): >0.02 mg/kg
[6]
  DL 50 ks: 6,000-8,100 mg/kg
[7]; Limetal
  K sim (Limetal): (>6)
[7]
  K sim (according to Yu. S. Kogan): (5)

## O=[Se]([O-])[O-].[Na+].[Na+] [Na2SeO3, sodium selenite, reference compound]
[1]
  DL 50 m: 6 mg/kg
[5]; human
  ADI (human): 0.0007 mg/kg
  MAC (human): 0.1 mg/m^3
[8]
  class of hazard subject to GOST 12.1.007-76: 1 (first) class of hazard
[6]
  DL 50 ks: 7 to 14 mg/kg
[7]
  K sim (according to Yu. S. Kogan): (1.6)

## O=[Se](=O)(O)O [sodium selenate]
[8]
  class of hazard subject to GOST 12.1.007-76: 1 (first) class of hazard
